Experimental findings from patent US5120752A, “Cyclopropyl derivative lipoxygenase inhibitors” (Abbott Laboratories, priority 1990, dated 1992) are described below.

The term IC50 denotes the concentration that gives 50% inhibition. As a reminder, the inhibition is how much of the control response was suppressed.

The test system of experiment [1] is LTB4 biosynthesis in human whole blood. The experiment in a line: Inhibition of calcium ionophore-induced LTB4 biosynthesis in human whole blood. The class given is cell-based. Particulars: for IC50: A23187 50 μM, 15 min preincubation, read-out: Inhibition of Leukotriene Biosynthesis IC50; for inhibition at 0.2 µM: read-out: Inhibition of Leukotriene Biosynthesis (% at 0.2 μM). As for the experimental part: Inhibition of leukotriene biosynthesis was evaluated in an assay, involving calcium ionophore-induced LTB4 biosynthesis expressed by human whole blood. Heparinized (20 U/mL) human blood (0.3 mL) was preincubated with test compound or vehicle for 15 min. at 37° C. Eicosanoid biosynthesis was initiated by adding calcium ionophore (A23187) in DMSO to a final concentration of 50 μM and terminated after 30 min. by rapid cooling of the blood in an ice bath and centrifuging at 3° C. for 10 min at 2500×g. The plasma was mixed with 4 volumes of methanol and allowed to stand for at least 30 min. at 3° C. prior to centrifuging at 1800×g for 10 min. The level of LTB4 in aliquots of the methanol-plasma extract was analyzed by radio-immunoassay or enyme-immunoassay techniques.

The test system of another experiment is leukotriene biosynthesis. The experiment in a line: Inhibition of leukotriene biosynthesis in vivo after oral administration, rat peritoneal anaphylaxis model. Particulars: 100 μmol/kg oral (gavage), 1 h before antigen challenge, read-out: % Inhibition of Leukotrienes at 100 μmol/kg oral dose. As for the experimental part: Inhibition of the biosynthesis of leukotrienes in vivo after oral administration of representative test compounds of this invention was determined using a rat peritoneal anaphylaxis model in a similar manner as that described by Young and coworkers (Young, P. R.; Dyer, R. D.; Carter, G. W. Fed. Proc., Fed. Am. Soc. Exp. Biol. 1985, 44, 1185). In this model rats were injected intraperitoneally (ip) with rabbit antibody to bovine serum albumin (BSA) and three hours later injected ip with BSA to induce an antgen-antibody response. Rats were sacrificed 15 minutes after this challenge and the peritoneal fluids were collected and analyzed for leukotriene levels. Test compounds were administered by gavage one hour prior to the antigen challenge. Percent inhibition values were determined by comparing the treatment group to the mean of the control group. The results of this assay, for representative compounds of the present invention, at an oral dose level of […] are presented in Table 2, and at an oral dose of […] in Table 3.

For `NC(=O)N(O)C[C@@H]1C[C@H]1c1cccc(Oc2ccc(O)cc2)c1` (relative stereo) [Example 160, N-(1-trans-(2-(3(4-hydroxyphenoxy)phenyl)cyclopropyl)methyl)-N-hydroxyurea], the IC50 in experiment [1] was 470 nM. Regarding `NC(=O)N(O)C[C@@H]1C[C@H]1c1cccc(Oc2ccc(OCCO)cc2)c1` (relative stereo) [Example 161, N-(1-trans-(2-(3-(4-(2-hydroxyethoxy)phenoxy)phenyl)cyclopropyl)methyl)-N-hydroxyurea], the IC50 in experiment [1] came to 170 nM. The same measure, in the same setting: to `Cc1cccc(Oc2cccc([C@@H]3C[C@H]3CN(O)C(N)=O)c2)n1` (relative stereo) [Example 163, N-(1-trans-(2-(3-(6-methyl-2-pyridyloxy)phenyl)cyclopropyl)methyl)-N-hydroxyurea] belongs 250 nM; to `NC(=O)N(O)C[C@@H]1C[C@H]1c1cccc(Oc2cnc3ccccc3c2)c1` (relative stereo) [Example 164, N-(1-trans-(2-(3-(3-quinonyloxy)phenyl)cyclopropyl)methyl)-N-hydroxyurea], 610 nM. Still for that read-out and setting: under `CCOc1ccc(Oc2cccc([C@@H]3C[C@H]3CN(O)C(=O)NC3CC3)c2)cc1` (relative stereo) [Example 165] stands 740 nM. As to `NC(=O)N(O)C[C@@H]1C[C@H]1c1cccc(Oc2nccs2)c1` (relative stereo) [Example 166, N-(1-trans-(2-(3-(2-thiazolyloxy)phenyl)cyclopropyl)methyl)-N-hydroxyurea], in experiment [1], the IC50 amounted to 110 nM. Besides, the inhibition in vivo at 100 µmol/kg in the experiment with leukotriene biosynthesis worked out at 91%.

For the molecule `CCOc1ccc(Oc2cccc([C@@H]3C[C@H]3CN(O)C(N)=O)c2)cc1` (relative stereo) [Example 167, N-(1-trans-(2-(3-(4-ethoxyphenoxy)phenyl)cyclopropyl)methyl)-N-hydroxyurea], in experiment [1], the concentration for half-maximal inhibition (IC50) worked out at 40 nM. The inhibition in vivo at 100 µmol/kg with leukotriene biosynthesis amounted to 94%. In the same order, the values of `NC(=O)N(O)C[C@@H]1C[C@H]1c1cccc(Oc2cccnc2)c1` (relative stereo) [Example 168, N-(1-trans-(2-(3-(3-pyridyloxy)phenyl)cyclopropyl)methyl)-N-hydroxyurea] are 50 nM and 99%. In the same order, the values of `CCCc1ccc(Oc2cccc([C@@H]3C[C@H]3CN(O)C(N)=O)c2)cc1` (relative stereo) [Example 169, N-(1-trans-(2-(3-(4-propylphenoxy)phenyl)cyclopropyl)methyl)-N-hydroxyurea] are 170 nM and 98%.

Take `Cc1ccccc1Oc1cccc([C@@H]2C[C@H]2CN(O)C(N)=O)c1` (relative stereo) [Example 170, N-(1-trans-(2-(3-(2-methylphenoxy)phenyl)cyclopropyl)methyl)-N-hydroxyurea]: the inhibition at 0.1 µM in experiment [1] (0.1 μM, read-out: Inhibition of Leukotriene Biosynthesis (% at 0.1 μM)) stood at 89%. For the same molecule, the inhibition in vivo at 100 µmol/kg with leukotriene biosynthesis amounted to 94%. Consider `CNC(=O)N(O)C[C@@H]1C[C@H]1c1cccc(Oc2ccccn2)c1` (relative stereo) [Example 171, N-(1-trans-(2-(3-(2-pyridyloxy)phenyl)cyclopropyl)methyl)-N-hydroxy-N'-methylurea], for which, in experiment [1] (0.39 μM, read-out: Inhibition of Leukotriene Biosynthesis (% at 0.39 μM)), the inhibition at 0.39 µM worked out at 40%. As to `CNC(=O)N(O)C[C@@H]1C[C@H]1c1cccc(Oc2cccc(C)c2)c1` (relative stereo) [Example 173, N-(1-trans-(2-(3-(3-methylphenoxy)phenyl)cyclopropyl)methyl)-N-hydroxy-N-methylurea], the half-inhibitory concentration (IC50) in experiment [1] was found to be 230 nM. For `Cc1cccc(Oc2cccc([C@@H]3C[C@H]3CN(O)C(N)=O)c2)c1` (relative stereo) [Example 174, N-(1-trans-(2-(3-(3-methylphenoxy)phenyl)cyclopropyl)methyl)-N-hydroxyurea], in experiment [1], the IC50 was 140 nM. In the experiment on leukotriene biosynthesis, the inhibition in vivo at 100 µmol/kg was determined as 96%. As to `CCc1ccc(Oc2cccc([C@@H]3C[C@H]3CN(O)C(=O)NC)c2)cc1` (relative stereo) [Example 175, N-(1-trans-(2-(3-(4-ethylphenoxy)phenyl)cyclopropyl)methyl)-N-hydroxy-N'-methyl-hydroxyurea], the IC50 in experiment [1] was 200 nM.

With `CCc1ccc(Oc2cccc([C@@H]3C[C@H]3CN(O)C(N)=O)c2)cc1` (relative stereo) [Example 176, N-(1-trans-(2-(3-(4-ethylphenoxy)phenyl)cyclopropyl)methyl)-N-hydroxyurea], in experiment [1], the half-inhibitory concentration (IC50) was 170 nM. Further, the inhibition in vivo at 100 µmol/kg in the experiment on leukotriene biosynthesis came to 87%. In the case of `CNC(=O)N(O)C[C@@H]1C[C@H]1c1cccc(Oc2ccc(F)cc2)c1` (relative stereo) [Example 177, N-(1-trans-(2-(3-(4-fluorophenoxy)phenyl)cyclopropyl)methyl)-N-hydroxy-N'-methylurea], the inhibition at 0.2 µM in experiment [1] came out at 69%. Consider `NC(=O)N(O)C[C@@H]1C[C@H]1c1cccc(Oc2cccs2)c1` (relative stereo) [Example 178, N-(1-trans-(2-(3-(2-thienyloxy)phenyl)cyclopropyl)methyl)-N-hydroxyurea], for which the inhibition at 0.2 µM in experiment [1] was found to be 64%. Moreover, the inhibition in vivo at 100 µmol/kg in the experiment with leukotriene biosynthesis was determined as 60%. Regarding `CNC(=O)N(O)C[C@@H]1C[C@H]1c1cccc(Oc2ccc(C)cc2)c1` (relative stereo) [Example 179, N-(1-trans-(2-(3-(4-methylphenoxy)phenyl)cyclopropyl)methyl)-N-hydroxy-N'-methylurea], the inhibition at 0.2 µM in experiment [1] is 61%. Further, the inhibition in vivo at 100 µmol/kg in the experiment with leukotriene biosynthesis came out at 61%. Consider `CNC(=O)N(O)C[C@@H]1C[C@H]1c1ccoc1` (relative stereo) [Example 185, N-(1-trans-(2-(3-furanyl)cyclopropyl)methyl)-N-hydroxy-N'-methylurea], for which the IC50 in experiment [1] worked out at 240 nM.

As to `CNC(=O)N(O)C[C@@H]1C[C@H]1c1ccsc1` (relative stereo) [Example 187, N-(1-trans-(2-(3-thienyl)cyclopropyl)methyl)-N-hydroxy-N'-methylurea], in experiment [1], the half-inhibitory concentration (IC50) worked out at 210 nM. Still for that read-out and setting: under `CC(=O)N(O)C[C@@H]1C[C@H]1c1cccs1` (relative stereo) [Example 190, N-(1-trans-(2-(2-thienyl)cyclopropyl)methyl)-N-hydroxyacetamide] stands 200 nM.

For `CC(=O)N(O)C[C@@H]1C[C@H]1c1ccco1` (relative stereo) [Example 195, N-(1-trans-(2-(2-furanyl)cyclopropyl)methyl)-N-hydroxyacetamide], the IC50 in experiment [1] amounted to 190 nM.

As to `NC(=O)N(O)C[C@@H]1C[C@H]1c1cnc(Oc2ccc(Cl)cc2)s1` (relative stereo) [Example 199, N-(1-trans-(2-(2-(4-chlorophenoxy)-5-thiazolyl)cyclopropyl)methyl)-N-hydroxyurea], the half-inhibitory concentration (IC50) in experiment [1] came to 60 nM. Take `CC([C@@H]1C[C@H]1c1cccc(Oc2ccccn2)c1)N(O)C(N)=O` (single isomer, unassigned) [Example 172a, N-(1-trans-(2-(3-(2-pyridyloxy)phenyl)cyclopropyl)ethyl)-N-hydroxyurea]: the IC50 in experiment [1] was 960 nM. Still for that read-out and setting: under `Cc1ccc(Oc2cccc([C@@H]3C[C@H]3C(C)CN(O)C(N)=O)c2)cc1` (stereo partly drawn) [Example 162, N-(2-trans-(2-(3-(4-methylphenoxy)phenyl)cyclopropyl)propyl)-N-hydroxyurea] stands 250 nM; under `CNC(=O)N(O)C(C)[C@@H]1C[C@H]1c1ccc(C)s1` (stereo partly drawn) [Example 181, N-(1-trans-(2-(5-methyl-2-thienyl)cyclopropyl)ethyl)-N-hydroxy-N'-methylure], 600 nM. As for `Cc1ccc([C@@H]2C[C@H]2C(C)N(O)C(N)=O)s1` (stereo partly drawn) [Example 182], the half-maximal inhibitory concentration (IC50) in experiment [1] worked out at 690 nM. With `CNC(=O)N(O)C(C)[C@@H]1C[C@H]1c1ccco1` (stereo partly drawn) [Example 183, N-(1-trans-(2-(2-furanyl)cyclopropyl)ethyl)-N-hydroxy-N'-methylurea], in experiment [1], the concentration for half-maximal inhibition (IC50) worked out at 620 nM.

With `CNC(=O)N(O)C(C)[C@@H]1C[C@H]1c1ccc(C)o1` (stereo partly drawn) [Example 184, N-(1-trans-(2-(5-methyl-2-furanyl)cyclopropyl)ethyl)-N-hydroxy-N'-methylurea], the half-inhibitory concentration (IC50) in experiment [1] turned out to be 850 nM. On the same count and under the same terms, under `CNC(=O)N(O)C(C)[C@@H]1C[C@H]1c1ccsc1` (stereo partly drawn) [Example 186, N-(1-trans-(2-(3-thienyl)cyclopropyl)ethyl)-N-hydroxy-N'-methylurea] stands 470 nM; under `CNC(=O)N(O)C(C)[C@@H]1C[C@H]1c1ccoc1` (stereo partly drawn) [Example 191, N-(1-trans-(2-(3-furanyl)cyclopropyl)ethyl)-N-hydroxy-N'-methylurea], 830 nM.

On to `CC(=O)N(O)C(C)[C@@H]1C[C@H]1c1cccs1` (stereo partly drawn) [Example 196, N-(1-trans-(2-(2-thienyl)cyclopropyl)ethyl)-N-hydroxyacetamide], for which the IC50 in experiment [1] is 980 nM. The same measure, in the same setting: under `CC([C@@H]1C[C@H]1c1cccs1)N(O)C(N)=O` (stereo partly drawn) [Example 197, N-(1-trans-(2-(2-thienyl)cyclopropyl)ethyl)-N-hydroxyurea] stands 1600 nM.
